# From ChEMBL document CHEMBL3301361, “Experimental in vitro DMPK and physicochemical data on a set of publicly disclosed compounds”
# Where a name gives a salt, the structure may show the parent alone. Non-standard residues stand in square brackets, D forms with d. Residues, ends and D or L forms follow the SMILES beside them. Phe(2-Me) = Cc1ccccc1C[C@H](N)C(=O)O
# Assay: in vitro
# Conditions: human, plasma
row,Structure (SMILES),fraction unbound at 5 h
1,C[C@](N)(Cc1ccccc1)c1ccccc1,0.179
2,CC(C)Cc1c(C(=O)C(N)=O)c2c(OCC(=O)NS(C)(=O)=O)cccc2n1Cc1ccccc1,0.0251
3,C[C@@H](c1ncncc1F)[C@](O)(Cn1cncn1)c1ccc(F)cc1F [VORICONAZOLE],0.535
4,COc1ccc2c(c1O)-c1cccc3c1[C@@H](C2)N(C)CC3 [APOCIDEINE],0.062
5,Cc1ccc(CNC(=O)CCS(=O)(=O)c2ccc(Br)cc2)cc1,0.013

# Same assay, conditions: human, plasma, PPB
row,Structure (SMILES),fraction unbound at 5 h
1,CN[C@@H](C)C(=O)N[C@H](C(=O)N[C@H]1CCN(CCCc2ccccc2)C1)C1CCCCC1,0.36
2,CNC(=O)c1cc(Oc2ccc3c(c2)nc(Nc2ccc(C(F)(F)F)cc2)n3C)ccn1,0.005
3,N=C(N)c1ccc(CNC(=O)C2(NC(=O)[C@H](NCC(=O)O)C3CCCCC3)Cc3ccccc3C2)cc1,0.54
4,CN[C@@H](C)C(=O)N[C@H](C(=O)N[C@H]1CCCCN(CCc2ccccc2)C1)C1CCCCC1,0.262
5,Cc1nc(N2CCOCC2)c2cc(-c3ccccc3)sc2n1,0.0042
6,Cc1cnc(Nc2cc(N3CCOCC3)nc(N[C@@H](C)c3ccc(F)cn3)n2)s1,0.0262
7,COCCOc1cc2ncc(C(N)=O)c(Nc3ccc(F)cc3F)c2cc1N1CCN(C)CC1,0.454
8,CCOc1cc2ncc(C(N)=O)c(Nc3cccc(Cl)c3Cl)c2cc1N1CCN(C(=O)CO)CC1,0.163
9,O=C(Nc1ccc(CCO)cc1)c1cc2cc(Cl)ccc2[nH]1,0.0139
10,O=C(Nc1cccc2cccnc12)c1ccc(N2C(=O)[C@@H]3[C@H](C2=O)[C@@H]2C=C[C@H]3C2)cc1,0.0111
11,COc1ccc(C[C@H](N)C(=O)N[C@@H](Cc2ccccc2C)C(N)=O)cc1 (H-Tyr(Me)-[Phe(2-Me)]-NH2),0.36
12,COc1ccc2c(c1)N(CCN1CCC(NCc3cc4c(cn3)OCCO4)CC1)C(=O)CS2,0.0948
13,COc1ccc(-c2nc3c(NCCCNC(=O)c4cccnc4)c(Br)cnc3[nH]2)cc1,0.013
14,[H]/N=C(/N)c1ccc(NCc2nc3cc(C(=O)N(CCC(=O)O)c4ccccn4)ccc3n2C)cc1 [DABIGATRAN],0.529
15,CC(C)COc1cccc(/C=C2\SC(=O)NC2=O)c1N1CCC[C@@H](N)C1,0.0119
16,COc1cc(Cc2cnc(N)nc2N)cc(OC)c1OC [TRIMETHOPRIM],0.339
17,CC(NCCC(c1ccccc1)c1ccccc1)c1ccccc1 (stereo not given) [FENDILINE],0.0116
18,CC(=O)Nc1ccc2ccn(-c3cc(NCCN4CCOCC4)n4ncc(C#N)c4n3)c2c1,0.112
19,Cc1cc(Nc2nc(N[C@@H](C)c3ccc(F)cc3)ncc2Cl)n[nH]1,0.009
20,Cc1csc(NC(=O)COc2ncnc3c2cnn3-c2ccccc2Cl)n1,0.0082

row,Structure (SMILES),fraction unbound at 5 h
1,O=C(O)C(c1ccccc1)N1CCO[C@H](CN2CCC(Oc3ccc(Cl)c(Cl)c3)CC2)C1 (stereo not given in full),0.0064
2,C[C@H]1CN(Cc2cc(Cl)ccc2OCC(=O)O)CCN1S(=O)(=O)c1ccccc1,0.0274
3,CNC(=O)c1[nH]cnc1C(=O)Nc1ccc(Cl)cc1,0.0268
4,COc1cc(OC)c(S(=O)(=O)N2c3ccccc3Oc3ccccc32)cc1NC(=O)Cc1ccnc(F)c1,0.0099
5,CC(C)(C)COc1ccc(-n2cc(C(=O)O)cn2)cc1C#N,0.0224
6,COc1cc(OC)c(S(=O)(=O)N2c3ccccc3Oc3ccccc32)cc1NC(=O)/C=C/C(=O)O,0.024
7,COc1ccc2c(O)cc(=O)n(Cc3ccc(-c4ccccc4-c4nn[nH]n4)cc3)c2c1,0.0011
8,COc1cc(OC)c(S(=O)(=O)N2c3ccccc3CCC2C)cc1NC(=O)CCc1nn[nH]n1 (stereo not given),0.0647
9,Cc1sc2c(c1C)c(=O)n(-c1ccc(F)cc1)c(=O)n2CC(=O)NCc1ccco1,0.0268
10,COc1cccc(OC)c1OCCNCC1COc2ccccc2O1 (stereo not given),0.024
11,CN1CCN(C(=O)c2cc(Cc3n[nH]c(=O)c4ccccc34)ccc2F)CC1,0.289
12,CCOc1cc2ncc(C(N)=O)c(Nc3ccc(F)cc3F)c2cc1N1CCOCC1,0.0836
13,CC(C)COc1ccc(-c2cc(=O)[nH]c(N)n2)cc1,0.0374
14,COc1ccc2ncc(=O)n(CCN3CC[C@@H](NCc4cc5c(cn4)OCCO5)[C@@H](O)C3)c2c1,0.142
15,O=C(c1ccccc1)N1CCC(c2nc3ccccc3o2)CC1,0.0457
16,Cc1ncc(NC(=O)c2cc(NC(=O)c3cc(F)cc(Cl)c3)ccc2Cl)s1,0.004
17,Cc1nccn1-c1ccc(COc2cc(F)cc(C3(C(N)=O)CCOCC3)c2)cc1,0.101
18,COC(=O)CCn1cc(-c2cc(NC3CC3)n3ncc(C#N)c3n2)c2cc(NC(C)=O)ccc21,0.016
19,CCCC[C@H](NC(C)=O)C(=O)N[C@H]1CC(=O)NCCCC[C@@H](C(=O)O)NC(=O)[C@H](Cc2c[nH]c3ccccc23)NC(=O)[C@H](CCCN=C(N)N)NC(=O)[C@@H](Cc2ccccc2)NC(=O)[C@H](Cc2cnc[nH]2)NC1=O [BREMELANOTIDE],0.729
20,CC(=O)NCc1cccc(C(=O)O)c1,0.17

row,Structure (SMILES),fraction unbound at 5 h
1,COc1cc2ncc(C(N)=O)c(Nc3ccc(Cl)cc3Cl)c2cc1N1CCN(C)CC1,0.0321
2,COc1ccc(S(=O)(=O)N2CCC[C@H](n3cc(C)c(=O)[nH]c3=O)C2)cc1Oc1cccc(Cl)c1,0.0251
3,CC(C)Oc1cc2ncc(C(N)=O)c(Nc3ccc(Cl)c(Cl)c3)c2cc1N1CCN(C)CC1,0.0099
4,CC(C)(C)c1ccc2c(c1)CC[C@H]2NC(=O)Nc1cccc2[nH]ncc12 [ABT-102],0.0022
5,CN(C)CCNC(=O)c1ccc(Nc2ncc3cc(-c4ccncc4)ccc3n2)cc1,0.0111
6,NC1=NC(c2ccc(F)cc2)Cc2ccc(F)cc21 (stereo not given),0.329
7,COC(=O)/C=C/C(=O)O [MONOMETHYL FUMARATE],0.139
8,Cc1cc(Nc2nc(N[C@@H](C)c3ncc(F)cn3)nc(N3CCOCC3)c2F)n[nH]1,0.0836
9,COc1cnc(-c2ccccn2)nc1N(C)C,0.163
10,CCCNC(=O)c1cc2c(-n3ccc(C(F)(F)F)n3)c(-c3cncc(C(=O)O)c3)cnc2[nH]1,0.0768
11,C[C@H]1O[C@@H](n2cnc3c(N)nc(OCC4CC45CC5)nc32)[C@H](O)[C@@H]1O (stereo not given in full),0.249
12,COc1cc2ncc(C(N)=O)c(Nc3cccc(Cl)c3Cl)c2cc1N1CCN(C)CC1,0.0447
13,O=C(Nc1ccc(Cl)c(C(=O)Nc2cncs2)c1)c1cccc(C(F)(F)F)c1,0.004
14,C=CC1(C)CC(=O)C2(O)C(C)(O1)C(OC(C)=O)C(O)C1C(C)(C)CCC(O)C12C (stereo not given),0.16
15,Cc1cn([C@H]2CCCN(S(=O)(=O)c3ccc(C#N)c(Oc4cccc(Cl)c4)c3)C2)c(=O)[nH]c1=O,0.0229
16,COCCOc1cc2ncc(C(N)=O)c(Nc3cccc(Cl)c3Cl)c2cc1N1CCN(C)CC1,0.103
17,c1cc(-c2ccc3nc(Nc4ccc(OCCN5CCCC5)cc4)ncc3c2)ccn1,0.028
18,COc1cc(OC)c(S(=O)(=O)N2c3ccccc3CCC2C)cc1NC(=O)CCC(=O)O (stereo not given),0.186
19,CC(C)NC(=O)c1cc2c(-n3ccc(C(F)(F)F)n3)c(-c3cncc(C(=O)O)c3)cnc2[nH]1,0.228
20,COCCNC(=O)c1ccc(Nc2ncc3cc(-c4cnccc4C)ccc3n2)cc1,0.0262
